In PubChem BioAssay AID1259407 (Chemical Carcinogenesis Research Information System (CCRIS), 2018):
Calls of active or inactive are those of the source. How the calls were made is not given here.

Tested on: CCRIS mutagenicity, Ames/micronucleus/aberration tests
Assay: CCRIS mutagenicity studies
[1] = Test System: AMES SALMONELLA TYPHIMURIUM, Strain/Indicator: TA98, Metabolic Activation: NONE, Method: PREINCUBATION
[2] = Test System: AMES SALMONELLA TYPHIMURIUM, Strain/Indicator: TA100, Metabolic Activation: NONE, Method: PREINCUBATION
[3] = Test System: AMES SALMONELLA TYPHIMURIUM, Strain/Indicator: TA102, Metabolic Activation: NONE, Method: PREINCUBATION
[4] = Test System: AMES SALMONELLA TYPHIMURIUM, Strain/Indicator: TA100, Metabolic Activation: NONE, Method: STANDARD PLATE

O[Te](O)(O)(O)(O)O
mutagenic call (End Point: IN VITRO MICRONUCLEUS, Test System: HUMAN PERIPHERAL LYMPHOCYTES, Metabolic Activation: NONE, Method: FISH (CENTROMERIC SIGNAL CONTENT)): active; positive

C1CN2CCN1CC2
mutagenic call [1]: inactive; negative | mutagenic call (Test System: AMES SALMONELLA TYPHIMURIUM, Strain/Indicator: TA98, Metabolic Activation: RAT, LIVER, S-9, PCB, Method: PREINCUBATION): inactive; negative | mutagenic call [2]: inactive; negative | mutagenic call (Test System: AMES SALMONELLA TYPHIMURIUM, Strain/Indicator: TA100, Metabolic Activation: RAT, LIVER, S-9, PCB, Method: PREINCUBATION): inactive; negative

C=CC(C)(O)CCC=C(C)C (stereo unspecified)
mutagenic call (Test System: AMES SALMONELLA TYPHIMURIUM, Strain/Indicator: TA97, Metabolic Activation: NONE, Method: PREINCUBATION): inactive; negative | mutagenic call (Test System: AMES SALMONELLA TYPHIMURIUM, Strain/Indicator: TA97, Metabolic Activation: RAT, LIVER, S-9, AROCLOR 1254, Method: PREINCUBATION): inactive; negative | mutagenic call [3]: inactive; negative | mutagenic call (Test System: AMES SALMONELLA TYPHIMURIUM, Strain/Indicator: TA102, Metabolic Activation: RAT, LIVER, S-9, AROCLOR 1254, Method: PREINCUBATION): inactive; negative | mutagenic call (Test System: E. coli, Strain/Indicator: WP2 IC185 trpE65, Metabolic Activation: None, Method: Plate incorporation (Test material solvent: ethanol)): inactive; negative | mutagenic call (Test System: E. coli, Strain/Indicator: WP2 IC202 trpE65 oxyR/pKM101, Metabolic Activation: None, Method: Plate incorporation (Test material solvent: ethanol)): inactive; negative

CC(=O)N[C@@H](C(=O)N(CC(=O)O)N=O)C(C)C
mutagenic call [4]: active; positive | mutagenic call (Test System: AMES SALMONELLA TYPHIMURIUM, Strain/Indicator: TA100, Metabolic Activation: RAT, LIVER, S-9, AROCLOR 1254, Method: STANDARD PLATE): active; positive | mutagenic call (Test System: CHO/HGPRT, Strain/Indicator: CHO-K1-BH4, Metabolic Activation: NONE): active; positive

Cn1c(N)nc2c3nc(-c4ccccc4)c(-c4ccccc4)nc3ccc21
mutagenic call (Test System: AMES SALMONELLA TYPHIMURIUM, Strain/Indicator: TA98, Metabolic Activation: RAT, LIVER, S-9, AROCLOR 1254, Method: STANDARD PLATE): inactive; negative

Oc1ccc2cccc(O)c2c1
mutagenic call (Test System: AMES SALMONELLA TYPHIMURIUM, Strain/Indicator: TA2637, Metabolic Activation: NONE, Method: PREINCUBATION): active; positive

CCc1cccc(CC)c1N(COC)C(=O)CCl
mutagenic call (End Point: IN VITRO CHROMOSOMAL ABERRATIONS, Test System: PERIPHERAL BLOOD HUMAN LYMPHOCYTES, Metabolic Activation: NONE): inactive; negative; chromosomal aberrations not increased but chromatid-type aberrations i | mutagenic call (End Point: IN VITRO MICRONUCLEUS, Test System: HUMAN PERIPHERAL BLOOD LYMPHOCYTES, Metabolic Activation: NONE): active; positive; result at highest dose; variation among donors | mutagenic call (End Point: IN VITRO MICRONUCLEUS, Test System: HUMAN PERIPHERAL BLOOD LYMPHOCYTES, Metabolic Activation: S-9): active; positive; result at highest dose; variation among donors | mutagenic call (End Point: IN VITRO MICRONUCLEUS, Test System: PERIPHERAL BLOOD HUMAN LYMPHOCYTES, Metabolic Activation: NONE): active; positive; variation among donors | mutagenic call [1]: inactive; negative | mutagenic call (Test System: AMES SALMONELLA TYPHIMURIUM, Strain/Indicator: TA98, Metabolic Activation: NONE, Method: STANDARD PLATE): inactive; negative | mutagenic call (Test System: AMES SALMONELLA TYPHIMURIUM, Strain/Indicator: TA98, Metabolic Activation: RAT, LIVER, MICROSOMES, PHENOBARBITAL, Method: PREINCUBATION): inactive; negative | mutagenic call (Test System: AMES SALMONELLA TYPHIMURIUM, Strain/Indicator: TA98, Metabolic Activation: S-9, Method: STANDARD PLATE): inactive; negative | mutagenic call [2]: inactive; negative | mutagenic call [4]: inactive; negative | mutagenic call (Test System: AMES SALMONELLA TYPHIMURIUM, Strain/Indicator: TA100, Metabolic Activation: RAT OLFACTORY S-9, Method: PREINCUBATION): active; positive | mutagenic call (Test System: AMES SALMONELLA TYPHIMURIUM, Strain/Indicator: TA100, Metabolic Activation: RAT RESPIRATORY S-9, Method: PREINCUBATION): inactive; negative | mutagenic call (Test System: AMES SALMONELLA TYPHIMURIUM, Strain/Indicator: TA100, Metabolic Activation: RAT, LIVER, MICROSOMES, PHENOBARBITAL, Method: PREINCUBATION): inactive; negative | mutagenic call (Test System: AMES SALMONELLA TYPHIMURIUM, Strain/Indicator: TA100, Metabolic Activation: RAT, LIVER, S-9, Method: PREINCUBATION): active; positive | mutagenic call (Test System: AMES SALMONELLA TYPHIMURIUM, Strain/Indicator: TA100, Metabolic Activation: S-9, Method: STANDARD PLATE): inactive; negative | mutagenic call (Test System: AMES SALMONELLA TYPHIMURIUM, Strain/Indicator: TA1535, Metabolic Activation: NONE, Method: STANDARD PLATE): inactive; negative | mutagenic call (Test System: AMES SALMONELLA TYPHIMURIUM, Strain/Indicator: TA1535, Metabolic Activation: S-9, Method: STANDARD PLATE): inactive; negative | mutagenic call (Test System: AMES SALMONELLA TYPHIMURIUM, Strain/Indicator: TA1537, Metabolic Activation: NONE, Method: STANDARD PLATE): inactive; negative | mutagenic call (Test System: AMES SALMONELLA TYPHIMURIUM, Strain/Indicator: TA1537, Metabolic Activation: S-9, Method: STANDARD PLATE): inactive; negative | mutagenic call (Test System: AMES SALMONELLA TYPHIMURIUM, Strain/Indicator: TA1538, Metabolic Activation: NONE, Method: STANDARD PLATE): active; positive | mutagenic call (Test System: AMES SALMONELLA TYPHIMURIUM, Strain/Indicator: TA1538, Metabolic Activation: S-9, Method: STANDARD PLATE): inactive; negative | mutagenic call (Test System: MOUSE LYMPHOMA, Strain/Indicator: 3.7.2C (TK+/TK-), Metabolic Activation: RAT OLFACTORY S-9, Method: SUSPENSION/PLATE): active; positive

CS
mutagenic call [1]: inactive; negative | mutagenic call (Test System: AMES SALMONELLA TYPHIMURIUM, Strain/Indicator: TA98, Metabolic Activation: RAT, LIVER, S-9, SODIUM PHENOBARBITAL AND 5,6-BENZOFLAVONE, Method: PREINCUBATION): inactive; negative | mutagenic call [2]: inactive; negative | mutagenic call (Test System: AMES SALMONELLA TYPHIMURIUM, Strain/Indicator: TA100, Metabolic Activation: RAT, LIVER, S-9, SODIUM PHENOBARBITAL AND 5,6-BENZOFLAVONE, Method: PREINCUBATION): inactive; negative | mutagenic call [3]: inactive; negative | mutagenic call (Test System: AMES SALMONELLA TYPHIMURIUM, Strain/Indicator: TA102, Metabolic Activation: RAT, LIVER, S-9, SODIUM PHENOBARBITAL AND 5,6-BENZOFLAVONE, Method: PREINCUBATION): inactive; negative | mutagenic call (Test System: AMES SALMONELLA TYPHIMURIUM, Strain/Indicator: TA104, Metabolic Activation: NONE, Method: PREINCUBATION): inactive; negative | mutagenic call (Test System: AMES SALMONELLA TYPHIMURIUM, Strain/Indicator: TA104, Metabolic Activation: RAT, LIVER, S-9, SODIUM PHENOBARBITAL AND 5,6-BENZOFLAVONE, Method: PREINCUBATION): inactive; negative | mutagenic call (Test System: AMES SALMONELLA TYPHIMURIUM, Strain/Indicator: TA1535, Metabolic Activation: NONE, Method: PREINCUBATION): inactive; negative | mutagenic call (Test System: AMES SALMONELLA TYPHIMURIUM, Strain/Indicator: TA1535, Metabolic Activation: RAT, LIVER, S-9, SODIUM PHENOBARBITAL AND 5,6-BENZOFLAVONE, Method: PREINCUBATION): inactive; negative | mutagenic call (Test System: AMES SALMONELLA TYPHIMURIUM, Strain/Indicator: TA1537, Metabolic Activation: NONE, Method: PREINCUBATION): inactive; negative | mutagenic call (Test System: AMES SALMONELLA TYPHIMURIUM, Strain/Indicator: TA1537, Metabolic Activation: RAT, LIVER, S-9, SODIUM PHENOBARBITAL AND 5,6-BENZOFLAVONE, Method: PREINCUBATION): inactive; negative | mutagenic call (Test System: E. COLI, Strain/Indicator: WP2UVRA/PKM101, Metabolic Activation: NONE, Method: PREINCUBATION): inactive; negative | mutagenic call (Test System: E. COLI, Strain/Indicator: WP2UVRA/PKM101, Metabolic Activation: RAT, LIVER, S-9, SODIUM PHENOBARBITAL AND 5,6-BENZOFLAVONE, Method: PREINCUBATION): inactive; negative | mutagenic call (Test System: E. COLI, Strain/Indicator: WP2UVRA, Metabolic Activation: NONE, Method: PREINCUBATION): inactive; negative | mutagenic call (Test System: E. COLI, Strain/Indicator: WP2UVRA, Metabolic Activation: RAT, LIVER, S-9, SODIUM PHENOBARBITAL AND 5,6-BENZOFLAVONE, Method: PREINCUBATION): inactive; negative

C=CCNC1=C2C[C@@H](C)C[C@H](OC)[C@H](O)[C@@H](C)/C=C(\C)[C@H](OC(N)=O)[C@@H](OC)/C=C\C=C(/C)C(=O)NC(=CC1=O)C2=O
mutagenic call (Test System: Mouse lymphoma, Strain/Indicator: L5178Y (tk+/tk-), Metabolic Activation: None, Method: Suspension/plate): active; positive | mutagenic call (Test System: Mouse lymphoma, Strain/Indicator: L5178Y (tk+/tk-), Metabolic Activation: Rat, Liver, S-9, Aroclor 1254, Method: Suspension/plate): inactive; negative
